Experimental data reported in BindingDB's records for doi:10.1128/AAC.00448-06 (National Center For Genetic Engineering and Biotechnology …, 2006).

Assays:
[1] = biological target: T1, Bifunctional dihydrofolate reductase-thymidylate synthase [1-238,S58R,S117N] (Plasmodium vivax, UniProt O02604, S117N/S58R); assay: Inhibitor Screening Using Bacterial System (IC50) and Measurement of Inhibition Constant (Ki)
T1 construct: 1-238
Experimental: (§1) Nineteen Pyr analogs were studied for their inhibition activity against cells expressing either WT or SP21 mutant PvDHFR-TS. The assays were conducted with 96-well microplates by monitoring the growth at an optical density of 595 nm (A595). The average A595 of control culture omitting Pyr analogs was scored as 100% growth, and the average readings for the cultures at each drug concentration were divided by this value to obtain relative growth values. The concentrations that inhibited 50% bacterial growth (IC50s) were determined from dose-response curves. Inhibition constants (Ki) of antifolates were calculated using a nonlinear least square fit of the data to the Michaelis-Menten equation, assuming the inhibitor binds competitively to the enzyme active site.

[2] = biological target: Bifunctional dihydrofolate reductase-thymidylate synthase (Plasmodium vivax, UniProt O02604); assay: as above; settings: pH 7; 25 °C
Bifunctional dihydrofolate reductase-thymidylate synthase, sequence (O02604 whole entry): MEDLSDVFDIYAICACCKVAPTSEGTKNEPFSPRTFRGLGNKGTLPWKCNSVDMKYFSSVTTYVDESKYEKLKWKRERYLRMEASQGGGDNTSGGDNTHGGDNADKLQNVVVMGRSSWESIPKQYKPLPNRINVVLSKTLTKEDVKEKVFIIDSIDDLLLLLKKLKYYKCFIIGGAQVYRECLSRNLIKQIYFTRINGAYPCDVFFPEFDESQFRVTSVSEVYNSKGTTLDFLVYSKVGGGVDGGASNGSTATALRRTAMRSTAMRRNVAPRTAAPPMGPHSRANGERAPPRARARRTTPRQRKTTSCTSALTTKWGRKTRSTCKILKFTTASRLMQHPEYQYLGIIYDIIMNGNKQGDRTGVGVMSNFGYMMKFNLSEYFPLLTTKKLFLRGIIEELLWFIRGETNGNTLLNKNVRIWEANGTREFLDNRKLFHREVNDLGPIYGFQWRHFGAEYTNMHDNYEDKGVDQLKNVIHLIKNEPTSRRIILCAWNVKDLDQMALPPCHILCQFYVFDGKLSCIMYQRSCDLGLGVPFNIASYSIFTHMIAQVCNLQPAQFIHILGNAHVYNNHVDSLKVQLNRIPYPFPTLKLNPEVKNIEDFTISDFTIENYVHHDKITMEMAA
Experimental: as §1

T1 sequence (O02604 1-238, looked up, stated change not applied): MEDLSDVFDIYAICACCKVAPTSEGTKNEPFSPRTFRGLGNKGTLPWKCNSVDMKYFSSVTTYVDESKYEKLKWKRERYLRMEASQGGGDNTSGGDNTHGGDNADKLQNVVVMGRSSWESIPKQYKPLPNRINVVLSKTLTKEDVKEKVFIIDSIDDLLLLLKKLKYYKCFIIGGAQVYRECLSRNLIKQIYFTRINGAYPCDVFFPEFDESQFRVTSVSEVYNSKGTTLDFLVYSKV

**Q.** `CCc1nc(N)nc(N)c1-c1ccc(Cl)cc1` was tested. Which IC50 [1] did it give?
**A.** The IC50 was 20000 nM.

**Q.** What about the Ki [1] of the same compound?
**A.** The Ki was 3.04 nM.

**Q.** What about the IC50 [2] of the same compound?
**A.** Its IC50 is 180 nM.

**Q.** What about the Ki [2] of the same compound?
**A.** Its Ki is 0.21 nM.

**Q.** With `Cc1nc(N)nc(N)c1-c1ccc(Cl)cc1` as the compound, how does the IC50 [1] read?
**A.** Its IC50 is > 50000 nM.

**Q.** And the Ki [1]?
**A.** The Ki was 63.4 nM.

**Q.** What about the IC50 [2] of the same compound?
**A.** The IC50 was 1950 nM.

**Q.** What about the Ki [2] of the same compound?
**A.** The Ki was 0.78 nM.

**Q.** For `COC(=O)CCCc1nc(N)nc(N)c1-c1ccc(Cl)cc1`, which IC50 [1] is on record?
**A.** Its IC50 is > 50000 nM.

**Q.** What about the Ki [1] of the same compound?
**A.** Its Ki is 7.43 nM.

**Q.** And the IC50 [2]?
**A.** The IC50 was 200 nM.

**Q.** And the Ki [2]?
**A.** Its Ki is 0.69 nM.

**Q.** Which results are given for `CCc1nc(N)nc(N)c1-c1ccc(OC)cc1`?
**A.** IC50 [1]: > 50000 nM; Ki [1]: 37.8 nM; IC50 [2]: 350 nM; Ki [2]: 1.01 nM

**Q.** Which results are given for `CCc1nc(N)nc(N)c1-c1ccc(Cl)c(Cl)c1`?
**A.** IC50 [1]: 10500 nM; Ki [1]: 1.05 nM; IC50 [2]: 70 nM; Ki [2]: 0.52 nM

**Q.** With `Nc1nc(N)c(-c2cccc(Cl)c2)c(CCCc2ccccc2)n1` as the compound, how does the IC50 [1] read?
**A.** The IC50 was 13900 nM.

**Q.** And the Ki [1]?
**A.** The Ki was 1.32 nM.

**Q.** And the IC50 [2]?
**A.** Its IC50 is 2380 nM.

**Q.** What about the Ki [2] of the same compound?
**A.** The Ki was 0.77 nM.

**Q.** `CCc1nc(N)nc(N)c1-c1ccccc1` was tested. Which IC50 [1] did it give?
**A.** The IC50 was 1520 nM.

**Q.** And the Ki [1]?
**A.** The Ki was 0.08 nM.

**Q.** And the IC50 [2]?
**A.** Its IC50 is 1820 nM.

**Q.** And the Ki [2]?
**A.** Its Ki is 0.03 nM.

**Q.** For `Cc1nc(N)nc(N)c1-c1ccccc1`, which IC50 [1] is on record?
**A.** The IC50 was 12800 nM.

**Q.** And the Ki [1]?
**A.** Its Ki is 22.5 nM.

**Q.** And the IC50 [2]?
**A.** The IC50 was 11300 nM.

**Q.** And the Ki [2]?
**A.** The Ki was 4.18 nM.

**Q.** How did the IC50 [1] turn out when `Nc1nc(N)c(-c2ccccc2)c(CCCc2ccccc2)n1` was run?
**A.** The IC50 was 2760 nM.

**Q.** What about the Ki [1] of the same compound?
**A.** Its Ki is 0.81 nM.

**Q.** What about the IC50 [2] of the same compound?
**A.** The IC50 was 800 nM.

**Q.** And the Ki [2]?
**A.** The Ki was 0.53 nM.

**Q.** What does the source list for `Nc1nc(N)c(-c2cccc(Cl)c2)c(CCOCCCOc2ccccc2)n1` [5-(3-chlorophenyl)-6-[2-(3-phenoxypropoxy)ethyl]pyrimidine-2,4-diamine]?
**A.** IC50 [1]: 14200 nM; Ki [1]: 1.53 nM; IC50 [2]: 2270 nM; Ki [2]: 0.63 nM

**Q.** With `CCc1nc(N)nc(N)c1-c1cccc(Cl)c1` [5-(3-chlorophenyl)-6-ethylpyrimidine-2,4-diamine] as the compound, how does the IC50 [1] read?
**A.** The IC50 was 300 nM.

**Q.** What about the Ki [1] of the same compound?
**A.** The Ki was 0.54 nM.

**Q.** And the IC50 [2]?
**A.** Its IC50 is 360 nM.

**Q.** What about the Ki [2] of the same compound?
**A.** The Ki was 0.31 nM.

**Q.** Which results are given for `Cc1nc(N)nc(N)c1-c1cccc(Cl)c1` [5-(3-chlorophenyl)-6-methylpyrimidine-2,4-diamine]?
**A.** IC50 [1]: 1980 nM; Ki [1]: 1.19 nM; IC50 [2]: 2120 nM; Ki [2]: 0.69 nM

**Q.** How did the IC50 [1] turn out when `CCc1nc(N)nc(N)c1-c1ccc(Br)cc1` [5-(4-bromophenyl)-6-ethylpyrimidine-2,4-diamine] was run?
**A.** The IC50 was 30000 nM.

**Q.** And the Ki [1]?
**A.** Its Ki is 6.59 nM.

**Q.** And the IC50 [2]?
**A.** The IC50 was 90 nM.

**Q.** What about the Ki [2] of the same compound?
**A.** The Ki was 0.78 nM.

**Q.** With `CC(C)Cc1nc(N)nc(N)c1-c1ccc(Cl)cc1` [5-(4-chlorophenyl)-6-(2-methylpropyl)pyrimidine-2,4-diamine] as the compound, how does the IC50 [1] read?
**A.** Its IC50 is 18200 nM.

**Q.** What about the Ki [1] of the same compound?
**A.** Its Ki is 28.1 nM.

**Q.** What about the IC50 [2] of the same compound?
**A.** Its IC50 is 220 nM.

**Q.** What about the Ki [2] of the same compound?
**A.** Its Ki is 1.4 nM.

**Q.** Which results are given for `CCCCCCCCCc1nc(N)nc(N)c1-c1ccc(Cl)cc1` [5-(4-chlorophenyl)-6-nonylpyrimidine-2,4-diamine]?
**A.** IC50 [1]: > 50000 nM; Ki [1]: 24.5 nM; IC50 [2]: 2200 nM; Ki [2]: 4.29 nM

**Q.** With `Nc1ncc(-c2ccc(Cl)cc2)c(N)n1` [5-(4-chlorophenyl)pyrimidine-2,4-diamine] as the compound, how does the IC50 [1] read?
**A.** The IC50 was > 50000 nM.

**Q.** What about the Ki [1] of the same compound?
**A.** The Ki was 1080 nM.

**Q.** What about the IC50 [2] of the same compound?
**A.** Its IC50 is 1520 nM.

**Q.** And the Ki [2]?
**A.** Its Ki is 3.42 nM.

**Q.** For `CCc1nc(N)nc(N)c1-c1ccc(C(C)(C)C)cc1` [5-(4-tert-butylphenyl)-6-ethylpyrimidine-2,4-diamine], which IC50 [1] is on record?
**A.** Its IC50 is > 50000 nM.

**Q.** And the Ki [1]?
**A.** The Ki was 47.5 nM.

**Q.** And the IC50 [2]?
**A.** The IC50 was 1760 nM.

**Q.** What about the Ki [2] of the same compound?
**A.** The Ki was 1.14 nM.

**Q.** What does the source list for `CCc1nc(N)nc(N)c1-c1ccc(C)cc1` [6-ethyl-5-(4-methylphenyl)pyrimidine-2,4-diamine]?
**A.** IC50 [1]: 12400 nM; Ki [1]: 2.21 nM; IC50 [2]: 140 nM; Ki [2]: 0.39 nM

**Q.** How did the IC50 [1] turn out when `CCCCCCc1nc(N)nc(N)c1-c1ccccc1` [6-hexyl-5-phenylpyrimidine-2,4-diamine] was run?
**A.** The IC50 was 3020 nM.

**Q.** And the Ki [1]?
**A.** Its Ki is 0.9 nM.

**Q.** What about the IC50 [2] of the same compound?
**A.** The IC50 was 230 nM.
